In one assay the test system is Botrytis cinerea. Briefly: Microtest: activity against the grey mold pathogen Botrytis cinerea (micro titer plate, absorption 405 nm, 7 days). It is filed as cell-based. Particulars: single compound, 7 days after inoculation.
The test system of another assay is Pyricularia oryzae. Type of assay: cell-based. The note with it: single compound, 7 days after inoculation.

Each structure is given as a SMILES string. Where two headings read alike, the source gives them in different places.

For the molecule `Fc1cccc([C@@]2(Cn3ncnc3S)O[C@@H]2c2ccccc2Cl)c1` (relative stereo) [II-1, 2-[rel-(2S;3R)-3-(2-chlorophenyl)-2-(3-fluorophenyl)-oxiranylmethyl]-2H-[1,2,4]triazole-3-thiol], the results for the Observed efficacy in the assay on Botrytis cinerea (16 ppm), in the assay on Botrytis cinerea (63 ppm) and in the assay with Pyricularia oryzae (63 ppm) were 8%, 24% and 27%, respectively.

In the assay with Botrytis cinerea (0.063 ppm), `Cn1cc(C(=O)Nc2ccccc2-c2cc(F)c(F)c(F)c2)c(C(F)F)n1` [Fluxapyroxad, reference compound] came in with an Observed efficacy of 29%.

Consider `Fc1ccc(F)c2c(NCCc3ccc(Oc4cc(C(F)(F)F)ccn4)cc3)ncnc12` [I-5, (5,8-Difluoro-quinazolin-4-yl)-{2-[4-(4-trifluoromethyl-pyridin-2-yloxy)-phenyl]-ethyl}-amine], for which the figures for the Observed efficacy in the assay on Botrytis cinerea (1 ppm) and with Pyricularia oryzae (4 ppm) were 14% and 58%, respectively.

As to `COc1cc(CCNc2ncnc3c(F)ccc(F)c23)ccc1Oc1ncc(C(F)(F)F)cc1Cl` [I-17, (5,8-Difluoro-quinazolin-4-yl)-{2-[4-(3-chloro-5-trifluoromethyl-pyridin-2-yloxy)-3-methoxy-phenyl]-ethyl}-amine], the values for the Observed efficacy in the assay on Botrytis cinerea (4 ppm) and with Pyricularia oryzae (4 ppm) were 5% and 56%, respectively.

With `COc1cc(CCNc2ncnc3c(F)ccc(F)c23)ccc1Oc1cc(C(F)(F)F)ccn1` [I-18, (5,8-Difluoro-quinazolin-4-yl)-{2-[4-(4-trifluoromethyl-pyridin-2-yloxy)-3-methoxy-phenyl]-ethyl}-amine], the Observed efficacy in the assay on Botrytis cinerea (4 ppm) was 4%; in the assay with Pyricularia oryzae (4 ppm), 57%.

The molecule `COc1cc(CCNc2ncnc3c(F)cc(F)c(F)c23)ccc1Oc1cc(C(F)(F)F)ccn1` [I-19, (5,6,8-Trifluoro-quinazolin-4-yl)-{2-[4-(4-trifluoromethyl-pyridin-2-yloxy)-3-methoxy-phenyl]-ethyl}-amine] registered an Observed efficacy in the assay on Botrytis cinerea (1 ppm) of 12%.

Source of the values: patent US20130035229A1 (priority 2010, published 2013).
